SMILES | melting point [°C]
CC(C)(C)OC(=O)CNC(=O)c1ccc(N)c(Cl)c1 | 116 to 117
COc1ccc2c(c1)Sc1c(cc(OC)c(OC)c1Br)N2C(C)=O | 147 to 149
CCn1c(=NC(C)=O)c(-c2cc(OC)cc(OC)c2)cc2cnc(SC)nc21 | 145 to 150
O=C(CN1CCN(C(=O)OCc2ccc(C(F)(F)F)cc2)CC1)N1CCC2(CC1)Cn1cc([N+](=O)[O-])nc1O2 | 139 to 141
NC(=O)N1C(=O)C(=C(OC(=O)c2ccncc2)c2cccs2)c2cc(F)c(Cl)cc21 | 220 to 221
Cn1c2ccccc2c2c(N)c3c(nc21)C=CC3=O | 279 to 280
CCOc1ccc2c(c1)n(C1CCCCC1)c(=O)n2Cc1ccc(NC(=O)N(CC)CC)cc1OC | 158
O=C(Nc1ccc(-n2nc(C(F)(F)F)cc2C(F)(F)F)cc1)c1ccc(F)c(C(F)(F)F)c1 | 142 to 144
CCCn1cnc2nc(-c3ccc(Cl)cc3)nn2c1=S | 214 to 216
OCc1csc(CN2CCCC2)c1 | 111 to 112
Cc1ccccc1Nc1c(N)cnc2ccccc12 | 156 to 158
COC(=O)c1ncoc1-c1ccc([N+](=O)[O-])cc1Cl | 121 to 122
N#Cc1ccc2[nH]c3c(ccc4cc[nH]c43)c2c1 | > 250
CNc1nc(C)c(-c2cn3ccccc3n2)s1 | 228 to 229
Cc1c(C(=O)O)cn(-c2ccnc3ccccc23)c1C | 238
CCOC(=O)c1cn(-c2ccc(F)cc2F)c2nc(SCC)c(F)cc2c1=O | 170 to 171
CN1CCC(Sc2ccccc2)C(C#N)C1 (stereo not drawn) | 114
CCOC(=O)N1CCc2onc(Cl)c2C1 | 40 to 42
Cc1cc(CCCCCCCOc2ccc(C3=NCCN3)cc2)on1 | 118 to 119
O=C(O)CCCOn1nnc2ccc(Cn3ccnc3)cc21 | 170
CC(=O)Nc1cc(N2CCCC2)c2c(Cl)ccc3c2c1C(=O)N(O)C3=O | 152 to 154
Clc1ccc2nc(-c3ccc(Cl)s3)cn2n1 | 226 to 230
CCOc1c(Nc2ccc3[nH]cnc3c2)c(=O)c1=O | 243 to 244

SMILES | melting point [°C]
O=[N+]([O-])c1ccc(S(=O)(=O)Nc2ccccc2)cc1 | 154 to 156
CCc1nc(-c2cccc(C(=O)OC)c2)c(-c2ccnc(N)c2)s1 | 173 to 174
Cc1nc2c(-c3cccc(N4CCC(N5CCCC5)CC4)c3)cnn2c(N)c1-c1cccc(Cl)c1 | 188 to 193
CCCCCCCCOC(=O)Nc1ccccc1C1Cc2ccccc2N1 (stereo not drawn) | 99 to 102
CC(Oc1ccc(C(F)(F)F)cc1)c1ccnc2ncnn12 (stereo not drawn) | 100 to 102
CC(=O)N(CC(C)Cl)c1c(C)cccc1C (stereo not drawn) | 41 to 42
CCOC(=O)c1cc2cc(Br)ccc2[nH]1 | 160 to 164
COc1cc(OC)c(F)c(N2Cc3cnc(SC)nc3N(C3CCCC3)C2=O)c1F | 167 to 169
CC1(C)OC(=O)C(C)(N=Nc2ccc(F)cc2Br)C(=O)O1 | 92 to 93
COc1ccc(-c2cc3cc(F)c(F)cc3[nH]2)cc1NCc1ccc(C#N)cc1 | 158 to 159
COc1cc(O)c(C=O)c2cc(-c3ccc(O)cc3)oc12 | 254 to 255
CCCCCCCCCCCCCCOc1cc(C)ccc1C | 36.9 to 37.9
O=C(CCCNC(=O)c1ccc(OC(F)(F)F)cc1)CCCNC(=O)c1ccc(OC(F)(F)F)cc1 | 151 to 152
Cc1nsc(NC(=O)Cc2ccc3nn(CC(C)C)cc3c2)c1Cl | 133 to 135
Ic1cnc2c(c1)NCCN2 | 126 to 128
[N-]=[N+]=CC(=O)CC1CCCCC1 | 58 to 62
CCc1nc2c([nH]1)C(=O)N(C)CN2c1ccc(Cl)cc1Cl | 200 to 201
Cc1ccc2c(C(=O)NC3CN4CCC3CC4)cnn2c1 (stereo not drawn) | 142 to 144
CCOCc1nc2c(N)nc3cc(Br)cnc3c2n1CC1(O)CCCC1 | 166 to 168
CC(=O)c1csc(S(N)(=O)=O)c1 | 170 to 172
O=[N+]([O-])c1cc([N+](=O)[O-])c2[nH]c(C(F)(F)F)nc2c1N1CCCCC1 | 207 to 209
NOCCc1cn(C(c2ccccc2)(c2ccccc2)c2ccccc2)cn1 | 93
CSCCO[C@@H]1c2ccn3c(C)c(C)nc3c2N[C@H](c2ccccc2)[C@H]1O | 118 to 119

SMILES | melting point [°C]
C[Si](C)(C)C#Cc1c2ccccc2c2ccc3c(C#C[Si](C)(C)C)c4ccccc4c4ccc1c2c34 | 286 to 288
Cc1ccc(C(=O)C(=O)c2ccc(Br)cc2)cc1 | 132 to 135
OCC1OC(n2ncc3c(SCC=Cc4ccccc4)ncnc32)C(O)C1O (stereo not drawn) | 165 to 166
NSc1nc(N)nc2c1ncn2C1OC(CO)C(O)C1O (stereo not drawn) | 190 to 192
COC(=O)c1cc(C(C)=O)cnc1C1=NC(C)(C(C)C)C(=O)N1 (stereo not drawn) | 105 to 108
Cc1cc(NC(=O)c2cnccn2)nc(C)c1Br | 206
CCCCc1nc2ccccc2n1Cc1ccc(C#N)cc1 | 130
CC(C)(C)CC(NC(=O)c1ccc(Cl)cc1)NC(=N[N+](=O)[O-])Nc1cccnc1 (stereo not drawn) | 184 to 185
COC(=O)CCCCN(CCc1c[nH]c2ccccc12)CC(C)C | 103 to 104
CC(C)(CO)CNc1nccc(-c2c(-c3ccc(F)cc3)nc3occn23)n1 | 149
O=C(c1ccccc1)C1CCCS1(=O)=O (stereo not drawn) | 90 to 94
O=C1Cc2cc3c(cc2C(c2ccc([N+](=O)[O-])cc2)=NN1)OCO3 | 293 to 295
O=C(O)c1cc([N+](=O)[O-])cc2c1Nc1ccc(CCc3ccc(Cl)c(Cl)c3)cc1O2 | > 250
CC(C)(C)OC(=O)N1CCC(COc2ccc(N3CCCC3)cc2)CC1 | 141 to 145
COc1cc(C(=O)O)ccc1Cn1nnc2ccc(NC(=O)OC3CCCC3)cc21 | 237 to 239
COc1cc(OC)nc(NC(=O)N=NS(=O)(=O)C2SCCCN2C)n1 (stereo not drawn) | 188 to 190
CS(=O)(=O)c1ccc(-n2cc(C(F)(F)F)nc2-c2ccsc2)cc1 | 194 to 197
CCOCCOc1ncc2cc(-c3c(Cl)cccc3Cl)c(=N)n(C)c2n1 | 133 to 135
COC(=O)C1CCc2cc(F)cc(C(F)(F)F)c2O1 (stereo not drawn) | 71.8
COc1ccc(C(=O)N2CCc3cc(O)c(OC)cc3C2)cc1 | 173 to 174
CC(C)(C)Nc1cc(N2CCCNCC2)nc(NC(C)(C)C)n1 | 127 to 132
CN1CCC(c2ccc(N(C)C)cc2)(C(C)(C)O)CC1 | 142 to 143
Cc1c(Cl)ccc(C(N)=O)c1N | 206 to 208

Other lines, results leading:

melting point [°C] | SMILES
145 to 146 | CNC(=S)NS(=O)(=O)c1cc(CCNC(=O)c2cc(Cl)ccc2OC)ccc1-c1ccco1
71 to 73 | NC(=O)CNC(=O)c1cccc(-c2cc(F)cc3cc(Cc4cccc(C(F)(F)F)c4)sc23)c1
200 to 202 | CC1=C(C#N)C(c2cccc3nnc(-c4ccccc4)cc23)C(C(=O)OC(C)C)=C(C)N1 (stereo not drawn)
158 to 160 | COc1ccc2cccc(C(CCO)CNC(=O)C3CC3)c2c1 (stereo not drawn)
89 to 90 | CSCCOc1ccc(-c2coc3ccc(-c4nnc(C)o4)cc23)cc1
109 to 110 | CCC(CC)NC(=O)c1ccc(-c2scc(-c3ccccc3Cl)c2CC(=O)NC(=N)NCCCO)cc1
75 | CCOC(=O)C(C)Oc1cc(C(=O)O)c(O)c2ccccc12 (stereo not drawn)
168 to 170 | CCn1c(Oc2cccc(N3CCC(O)CC3)c2)nnc1[C@@H](C)NS(=O)(=O)c1ccc(Cl)c(Cl)c1
172 | COC(=O)c1ccc(Cl)c(C2(O)C(=O)N(Cc3ccc(OC)cc3OC)c3ccccc32)c1 (stereo not drawn)
163 to 166 | Clc1ccccc1-c1ccc(-c2ccc(C3=CC=CNC3)cc2)n1CNc1ccccn1
168 to 170 | CN1CCN(C2=Nc3ccccc3Nc3c(Cl)cccc32)CC1
271 to 273 | COC(=O)c1ccc2[nH]cc(C(=O)c3ccccc3)c2c1
158 to 160 | O=C(O)CCc1ccc(C(c2cc(F)ccc2F)S(=O)(=O)c2ccc(Cl)cc2)nc1 (stereo not drawn)
159 to 170 | COC(=O)CN(c1ccccc1C)S(=O)(=O)c1ccccc1C(=O)c1cc(OC)c2c(c1)OCO2
198 to 199 | COC(=O)c1cccc2c1c1c(n2Cc2ccccc2)CN(Cc2ccccc2)CC1=O
79 to 80 | COC(=O)CCCc1ccc(S(=O)(=O)Nc2ccccc2)cn1
229 to 233 | COCCc1nc2c(N)nc3ccccc3c2n1CCOCCNC(=O)c1ccc(C(=O)NCCOCCn2c(CCOC)nc3c(N)nc4ccccc4c32)cc1
126 to 128 | OCCCN1CCN(C(c2ccccc2)c2ccccc2)CC1
142 to 144 | CC(C)(C)c1ccc(Cn2c(-c3ccc4c(c3)OCO4)nc3ccccc32)cc1
190 to 192 | CCC(C)(C)c1ccc(OCCCNC(=O)c2cc(NC(=O)C(Cl)(Cl)Cl)c3ccccc3c2O)c(C(C)(C)CC)c1
165 to 167 | COc1ccc(C(=O)Nc2ccccc2)cc1NCc1ccc(F)cc1
193 to 194 | COc1ccc2c(C(=O)N[C@H](Cc3ccc(C(F)(F)F)cc3)[C@@H](O)c3ccc(F)cc3)cccc2c1 (racemic)
223 to 226 | COc1cc(CC(=O)Nc2ccc(C3(CC(=O)O)CCCC3)cc2)ccc1NC(=O)Nc1ccccc1C
191 | O=C1c2cccc3cc4ccccc4c(c23)C(=O)N1CCNCCCNCCN1C(=O)c2cccc3cc4ccccc4c(c23)C1=O
179 to 181 | CNC(=S)N1CCC(c2nn(-c3ccc(F)cc3)c3ccccc23)CC1
50 | COC(=O)c1cccc(CNC(=O)C2Cc3ccccc3N2S(=O)(=O)c2ccc(-c3cccc(C(F)(F)F)c3)cc2)c1 (stereo not drawn)
150 to 151 | O=[N+]([O-])c1cccc(-c2nnc(NCc3cccc4ccccc34)s2)c1
187 to 189 | CC(C)CC(S)C(=O)NC1(C(=O)NC(Cc2ccc(-c3ccc(-c4cccc5ccccc45)cc3)cc2)C(=O)O)CCCC1 (stereo not drawn)
73 | CCCCCc1ccc(C(=O)Cc2cccc(C#N)c2)cc1

From a melting point compilation (Tetko et al.; mined from patent text by program, amines drawn as free bases though some values may be those of a salt)
